# Results reported in publication PMC7579906, “Discovery of a dual inhibitor of NQO1 and GSTP1 for treating glioblastoma” (Journal of Hematology & Oncology, 2020).
# Experiments:
# U87MG/EGFRvIII cells = test: Transwell migration assay; format: cell-based, human; conditions: 0-1 μM
# Experimental: A total of 1 × 10^4 cells were seeded onto the upper part of a transwell chamber (BD Bioscience, USA) containing a membrane filter for migration assays. Serum-free medium was added to the upper well, and medium containing 10% FBS was added to the lower well. After different treatments and incubation at 37 °C with 5% CO2, the filters were stained with crystal violet. Five random fields were counted per chamber by using a microscope.
# [1] = molecular target: T1, AEP (asparagine endopeptidase) (Homo sapiens, UniProt Q99538); test: AEP activity assay in cell lysates; format: cell-based; conditions: U87MG/EGFRvIII lysates, 0-5 μM
# T1 construct: endogenous in cells; host or cells: U87MG/EGFRvIII cells (lysate)
# T1 sequence (Q99538 18-433): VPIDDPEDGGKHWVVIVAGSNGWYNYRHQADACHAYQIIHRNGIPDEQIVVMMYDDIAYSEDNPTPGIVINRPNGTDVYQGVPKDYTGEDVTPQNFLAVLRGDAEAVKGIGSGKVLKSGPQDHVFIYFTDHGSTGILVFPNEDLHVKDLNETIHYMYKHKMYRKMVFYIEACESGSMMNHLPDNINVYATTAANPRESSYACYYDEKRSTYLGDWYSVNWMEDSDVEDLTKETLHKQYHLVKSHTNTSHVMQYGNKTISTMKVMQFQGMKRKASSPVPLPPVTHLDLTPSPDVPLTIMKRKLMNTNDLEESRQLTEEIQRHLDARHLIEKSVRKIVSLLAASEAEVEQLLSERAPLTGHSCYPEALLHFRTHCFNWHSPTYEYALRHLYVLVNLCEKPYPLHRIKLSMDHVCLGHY
# Experimental: After different treatments, cell lysates were incubated in 200 μl assay buffer (20 mM citric acid, 60 mM Na2HPO4, 1 mM EDTA, 0.1% CHAPS and 1 mM DTT, pH 6.0) containing 20 μM AEP substrate Z-Ala-Ala-Asn-AMC (Bachem, USA). AMC released by substrate cleavage was quantified by measuring every 10 min at 460 nm in a fluorescence plate reader at 37 °C in kinetic mode for the total time of 1 h.
# GSTP1 F8A = molecular target: T2, GSTP1 F8A (Homo sapiens, UniProt P09211, F9A/I105V); test: GSTP1 kinetic assay, F8A mutant; format: biochemical; conditions: mean ± SEM (n=3)
# T2 construct: hexahistidine tag followed by a thrombin site (N); made in house; host or cells: Escherichia coli BL21 (DE3)
# Experimental: The enzymatic activity of GSTP1 and its mutations was measured through the increased absorbance at 340 nm, which derived from the conjugation of reduced glutathione (GSH) and 1-chloro-2,4-dinitrobenzene (CDNB). The conjugation was initiated by adding CDNB to the mixture of GSH and GSTP1 or its mutants, and OD was immediately and continually measured for 20 min at 25 °C. The final assay mixture included 1 mM CDNB, 1 mM GSH in the buffer of 100 mM potassium phosphate pH 6.5, 1 mM EDTA. The inhibitory potency of MNPC versus GSTP1 or mutants was determined by calculating the residual activity after incubated with MNPC for 30 min at room temperature. Parallel control was run to monitor spontaneous conjugation of GSH and CDNB in the absence of the enzyme, and absorbance change of the control was used for the correction of an enzymatic reaction. The inhibition rate in triplicate was calculated by GraphPad Prism software (GraphPad, San Diego, CA) to give IC50 using nonlinear regression analysis.
# GSTP1 F8A/Y108A = molecular target: T3, GSTP1 F8A/Y108A (Homo sapiens, UniProt P09211, F9A/I105V/Y109A); test: Microscale thermophoresis (MST), F8A/Y108A; conditions: n.b. = no clear binding detected
# T3 construct: hexahistidine tag followed by a thrombin site (N); made in house; host or cells: Escherichia coli BL21 (DE3)
# Experimental: Since Tris buffer is incompatible with MST labeling, GSTP1 and its mutants were performed an initial buffer exchange to 20 mM HEPES pH 7.6, 200 mM NaCl before labeling. Then, the proteins were fluorescently labeled using Monolith Protein Labeling Kit RED-NHS 2nd generation dye (NanoTemper Technology, Munich, Germany) according to the protocol. MNPC was prepared with a series of concentrations (varying from 2 mM to 11 nM) at a dilution ratio of 1: 2. Six microliters of the fluorescence-labeled GSTP1 or mutations was mixed with 6 μl of variable concentration of MNPC and incubated for 10 min at room temperature. The mixtures were loaded into standard glass capillaries and analyzed on Monolith NT.115 at 25 °C, with 40% LED power and 100% Laser power in triplicate. Data were analyzed by NTAnalysis software to calculate the Kd values.
# T3 sequence (P09211 whole entry F9A/I105V/Y109A): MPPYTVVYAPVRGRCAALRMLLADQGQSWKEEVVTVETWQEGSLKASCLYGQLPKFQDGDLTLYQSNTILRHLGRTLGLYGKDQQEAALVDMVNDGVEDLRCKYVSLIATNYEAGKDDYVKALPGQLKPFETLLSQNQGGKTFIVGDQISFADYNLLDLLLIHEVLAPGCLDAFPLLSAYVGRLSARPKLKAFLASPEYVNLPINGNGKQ
# T2 sequence (P09211 whole entry F9A/I105V): as the sequence (P09211 whole entry F9A/I105V/Y109A) above, with A109Y counted along it
compound,measurement,setting,value
"Cc1onc(-c2ccccc2)c1C(=O)Nc1ncc([N+](=O)[O-])s1 [MNPC, 5-methyl-N-(5-nitro-thiazol-2-yl)-3-phenylisoxazole-4-carboxamide]",Effect on migration,U87MG/EGFRvIII cells,no effect
same,Inhibition of AEP,[1],nor inhibited
same,IC50,GSTP1 F8A,2.42 ± 0.36 µM
same,"Kd (μM), F8A/Y108A",GSTP1 F8A/Y108A,n.b. and no detectable binding
